Reference: patent US20050181516A1, “Bioequivalence determination using expression profiling” (priority 2002, published 2005)
“Also recorded” adds a separate entry of the source.

System: gene expression (mRNA) in peripheral blood (lymphocytes)
Test: Gene expression profiling (Affymetrix DNA microarrays) of blood samples of psoriatic patients before and after oral ASM981
Type: in vivo, human
Settings: for Mean fold variation: day 13/14 vs baseline
Description: The dose used was 60 mg/day, given as 30 mg twice a day (b.i.d.). To make this dose the […] tablets were cut in half using a special cutter (Tablettenteiler NR.96) so as to obtain 30 mg of ASM981 or a matched amount of placebo.
ASM981 was evaluated as treatment for psoriasis using an oral dose of 60 mg (30 mg b.i.d) during a 4 weeks clinical study. The oral formulation used was a highly standardized oral dosage form that could be produced in large amounts and with a highly uniform composition, this was oral formulation A.
The cohort included 10 patients; 8 received oral formulation A and 2 received a placebo. Blood samples were collected before the first administration to establish the gene expression baseline and on days 13 or 14 after treatment with ASM981 or placebo and submitted to gene expression analysis in order to gain insights into the mechanisms of action of the compound.
The RNA from each of the blood samples was extracted and tested on individual DNA microarrays, thus allowing, for each patient, a comparison of gene expression before and after ASM981 treatment. […] Genes that were consistently modulated, i.e., change greater then a factor of two, were sorted in functional categories. Table 4 lists all the identified genes with their symbol, Unigene cluster number, protein accession number and the GenBank accession number for the sequence used to design the Affymetrix probes.
The extraction of the RNA from the samples, the preparation of the target, the hybridization and the analysis of the arrays, were performed according to the methods and protocols recommended by Affymetrix. Total RNA was extracted from the blood samples (lymphocytes) collected on days 0 and 14 using TRIZOL™ (Life Technologies), and purified through RNEASY™ columns (Qiagen) as needed. Good quality total RNA ([…]) was used to synthesize double-stranded cDNA using the SUPERSCRIPT CHOICE SYSTEM™ (Life Technologies). The cDNA was then in vitro transcribed (MEGASCRIPT™ T7 Kit, Ambion) to form biotin-labeled cRNA. The quality of the cRNA was checked on a test array according to the recommendation of Affymetrix. Next, […] of labeled cRNA were hybridized to the probe arrays for 16 hours at 45° C. Arrays were then washed according to the EukGE-WS2 protocol (Affymetrix), and stained with […] of streptavidin-phycoerythrin conjugate (Molecular Probes). The signal was antibody amplified with 2 mg/mL acetylated BSA (Life Technologies), 100 mM MES, 1 M [Na+], 0.05% Tween 20, 0.005% Antiofoam (Sigma), 0.1 mg/mL goat IgG and 0.5 mg/mL biotinylated antibody and re-stained with the streptavidin solution. After washing, the arrays were scanned twice with the GENE ARRAY® scanner (Affymetrix).
The data were analyzed comparing, for each individual patient, the gene expression levels before and after treatment. Only genes that were consistently modulated in at least 5 patients were considered as relevant. These variations were also compared with the gene expression changes observed in the placebo treated patients. During analysis, one chip (patient 44 before treatment) appeared to have very few correctly hybridized genes, and to introduce a bias into the analysis. This pair was excluded to establish average fold change.

expression of inflammatory mediators (Leukotriene A4 hydrolase, Prostaglandin endoperoxide synthase) (blood cells): strongly down regulate
genes involved in asthma physiopathology (RANTES, GALECTIN-3, Thromboxane A2 receptor) (blood cells): markedly down regulated
SMILES: CC[C@@H]1/C=C(\C)C[C@H](C)C[C@H](OC)[C@H]2O[C@@](O)(C(=O)C(=O)N3CCCC[C@H]3C(=O)O[C@H](/C(C)=C/[C@@H]3CC[C@H](Cl)[C@H](OC)C3)[C@H](C)[C@@H](O)CC1=O)[C@H](C)C[C@@H]2OC [ASM981, 33-Epichloro-33-desoxy-ascomycin]
Mean fold variation (4-1BB ligand (TNFSF9) mRNA, blood): +2.3 fold
Mean fold variation (ADP/ATP translocase (SLC25A6) mRNA, blood): −3.7 fold
Mean fold variation (ALu RNA binding protein (SRP14) mRNA, blood): −2.9 fold
Mean fold variation (B7 protein (B7) mRNA, blood): +2.9 fold
Mean fold variation (BAP 31 (DXS1357E) mRNA, blood): −9.2 fold
Mean fold variation (BRCA2 (gene symbol ARPC2) mRNA, blood): −6.5 fold
Mean fold variation (Butyrophilin BTF5 (BTN3A1) mRNA, blood): −10.6 fold
Mean fold variation (CAMLG (calcium modulating cyclophilin ligand) mRNA, blood): −5.2 fold
Mean fold variation (CAPL/S100A4 mRNA, blood): −37.8 fold
Mean fold variation (CDC10 homologue (CDC10) mRNA, blood): −6 fold
Mean fold variation (COX6B mRNA, blood): −13.6 fold
Mean fold variation (CSF-1 (CSF1) mRNA, blood): +3.1 fold
Mean fold variation (Calmodulin (CALM2) mRNA, blood): −28.8 fold
Mean fold variation (Clone × 101 (MAP1A) mRNA, blood): +2.2 fold
Mean fold variation (Cyclin D2 (CCND2) mRNA, blood): −16.6 fold
Mean fold variation (Cyclin D3 (CCND3) mRNA, blood): −7.2 fold
Mean fold variation (Cystatin A (CSTA) mRNA, blood): −2.4 fold
Mean fold variation (Cystatin C (CST3) mRNA, blood): −25 fold
Mean fold variation (Cytochrome c oxidase subunit IV (COX4) mRNA, blood): −15.8 fold
Mean fold variation (Cytochrome c oxidase subunit VIc (COX6C) mRNA, blood): −21.1 fold
Mean fold variation (DARC (FY) mRNA, blood): +7 fold
Mean fold variation (EF-1, Elongation factor 1 delta (EEF1D) mRNA, blood): −12.4 fold
Mean fold variation (Epididymal secretory protein mRNA, blood): −19.6 fold
Mean fold variation (FC-epsilon binding protein Galectin 3 (LGALS3) mRNA, blood): −21 fold
Mean fold variation (Farnesyl transferase (FNTA) mRNA, blood): −9 fold
Mean fold variation (Ferritin (FTL) mRNA, blood): −4.4 fold
Mean fold variation (G gamma 11 (GNG11) mRNA, blood): −6.2 fold
Mean fold variation (GPR-9 CCR9 mRNA, blood): +3.4 fold
Mean fold variation (Gamma actin (ACTG1) mRNA, blood): −3.4 fold
Mean fold variation (Glutamine synthase (GLUL) mRNA, blood): −2.6 fold
Mean fold variation (Glutathione peroxidase mRNA, blood): −5.4 fold
Mean fold variation (HLA-DR (HLA-DRA) mRNA, blood): −3.2 fold
Mean fold variation (HLA-E mRNA, first of 2 sequences, blood): −23.4 fold
Mean fold variation (HLA-E mRNA, second of 2 sequences, blood): −4.2 fold
Mean fold variation (HLA-F mRNA, blood): −10.2 fold
Mean fold variation (HLA-I A 26 (HLA-A) mRNA, blood): −4.1 fold
Mean fold variation (HLA-I C (HLA-C) mRNA, blood): −2.9 fold
Mean fold variation (HLH G0S8 (RGS2) mRNA, blood): −10.8 fold
Mean fold variation (HMG-17 (HMG17) mRNA, blood): −15.5 fold
Mean fold variation (Histone H2 (H2AFL) mRNA, blood): −42.6 fold
Mean fold variation (Histone H3.3 (H3F3A) mRNA, blood): −6.6 fold
Mean fold variation (Ii Invariant chain, CD74 mRNA, blood): −46.4 fold
Mean fold variation (KIAA0 151 (IKKE) mRNA, blood): +2.5 fold
Mean fold variation (KIAA0055 (USP8) mRNA, blood): +3.7 fold
Mean fold variation (Kallistatin mRNA, blood): +3.3 fold
Mean fold variation (L-selectin (SELL) mRNA, blood): −46.6 fold
Mean fold variation (LAMP-1 (LAMP1) mRNA, blood): −19.1 fold
Mean fold variation (LAPT5 Lysosomal associated protein (LAPTM5) mRNA, blood): −12.5 fold
Mean fold variation (LFA1a (ITGAL) mRNA, blood): −16.1 fold
Mean fold variation (LFA1b (ITGB2) mRNA, blood): −8.3 fold
Mean fold variation (Lactate dehydrogenase (LDHB) mRNA, blood): −17.1 fold
Mean fold variation (Laminin receptor (LAMR1) mRNA, blood): −7.3 fold
Mean fold variation (Leukotriene A4 hydrolase (LTA4H) mRNA, blood): −8 fold
Mean fold variation (Lone HH109 mRNA, blood): +2 fold
Mean fold variation (MIC-2 CD99 (MIC2) mRNA, blood): −65 fold
Mean fold variation (MTf1 Mitochondrial transcription factor (TFAM) mRNA, blood): +3.2 fold
Mean fold variation (Macrophilin 12 FKBP (FKBP1A) mRNA, blood): −66.2 fold
Mean fold variation (Mitochondrial ubiquinone binding protein (first entry, M26730) mRNA, blood): −5.4 fold
Mean fold variation (Mitochondrial ubiquinone binding protein (second entry of Table 11) mRNA, blood): +6.6 fold
Mean fold variation (Myosin light chain non muscle type mRNA, blood): −15.6 fold
Mean fold variation (Myosin regulatory light chain (MLCB) mRNA, blood): −8.5 fold
Mean fold variation (NRGN Neuragranin mRNA, blood): −3.1 fold
Mean fold variation (Neutrophil cytochrome b light chain (CYBA) mRNA, blood): −34.7 fold
Mean fold variation (Non muscle-type cofilin (CFL1) mRNA, blood): −2.9 fold
Mean fold variation (Nuclear factor Nf-IL6 (CEBPB) mRNA, blood): −6.8 fold
Mean fold variation (Nucleosome assembly protein (NAP1L1) mRNA, blood): −7.7 fold
Mean fold variation (PF-4 (PF4V1) mRNA, blood): −5.2 fold
Mean fold variation (Platelet glycoprotein IIb (ITGA2B) mRNA, blood): −5.2 fold
Mean fold variation (Platelet glycoprotein Ib mRNA, blood): −26.6 fold
Mean fold variation (Prosaposin (PSAP) mRNA, blood): −56.1 fold
Mean fold variation (Prostaglandin endoperoxide synthase 1 (PTGS1) mRNA, blood): −45.9 fold
Mean fold variation (Proteoglycan core protein (PRG1) mRNA, blood): +49 fold
Mean fold variation (Prothymosin alpha (PTMA) mRNA, blood): −71.7 fold
Mean fold variation (Pyrroline5 carboxylate reductase (PYCR1) mRNA, blood): +34 fold
Mean fold variation (RANTES (SCYA5) mRNA, blood): −5.3 fold
Mean fold variation (RSU (RSU1) mRNA, blood): −7.2 fold
Mean fold variation (Ribosomal protein L 12 (RPL12) mRNA, blood): −4.8 fold
Mean fold variation (Ribosomal protein S 7 (RPS7) mRNA, blood): −6.4 fold
Mean fold variation (SABP1 (elk4) (ELK4) mRNA, blood): +6.4 fold
Mean fold variation (Scaffold attachment protein (HNRPU) mRNA, blood): −7.1 fold
Mean fold variation (Selectin P ligand SELPLG mRNA, blood): −17.1 fold
Mean fold variation (Serine Threonine phosphatase (PPP2R1B) mRNA, blood): +5.1 fold
Mean fold variation (Single stranded DNA binding (SSBP) mRNA, blood): −8.5 fold
Mean fold variation (Small nuclear ribonucleoprotein (SNRPN) mRNA, blood): −2 fold
Mean fold variation (TAX REB 67 (ATF4) mRNA, blood): −22.6 fold
Mean fold variation (TF lia transcription factor mRNA, blood): −16.4 fold
Mean fold variation (TRMP2 Apolipoprotein J mRNA, blood): −6.8 fold
Mean fold variation (Taurine transporter (SLC6A6) mRNA, blood): +4.4 fold
Mean fold variation (Thioredoxin binding protein/Vit. D3 Up regulated protein (VDUP1) mRNA, blood): −5.4 fold
Mean fold variation (Thromboxane A2 receptor (TBXA2R) mRNA, blood): −9.3 fold
Mean fold variation (Thymosin beta (TMSB10) mRNA, blood): −7.5 fold
Mean fold variation (Transaldolase mRNA, blood): −3.1 fold
Mean fold variation (Translationally controlled tumor protein (TPT1) mRNA, blood): −3.2 fold
Mean fold variation (Tyrosine phosphatase (huPP1) (PTP4A2) mRNA, blood): −5.7 fold
Mean fold variation (Ubiquitin like protein (UBL4) mRNA, blood): −21.5 fold
Mean fold variation (Vacuolar H + ATPase (ATP6N1A) mRNA, blood): +1.8 fold
Mean fold variation (Vimentin (VIM) mRNA, blood): −7 fold
Mean fold variation (Wilms tumor related protein mRNA, blood): −4 fold
Mean fold variation (Zinc finger protein ZNF141 mRNA, blood): +3.2 fold
CD8+ T lymphocytes in the blood (after treatment): slightly more represented
proportion of T cell expressing CD3 in the blood (after treatment): does not affect
expression of genes of the Macrolactam target pathway (Macrophilin 12), cellular activation and proliferation (Histone2, Histone 3.3, cyclin D2) (among blood cells): down regulate
FKBP12 at the level of RNA synthesis (blood): strongly down regulated
Kallistatin expression (blood): up-regulated
genes necessary for chemotaxis and cellular migration, including LFA-1, P-Selectin ligand and L-Selectin (blood cells): dramatic down regulation
CD3 expression level (blood, after treatment): unchanged
granzyme A and B expression (blood, after treatment): increase
genes involved in any known adverse side effect or toxicity pathway (expression profile, blood): no consistent pattern of alteration; also recorded: No gene linked to a possible adverse effect or to a toxicity pathway was found to be regulated
toxic effect in the expression profile (expression profile, blood): No obvious toxic effect
Mean fold variation (pM5 (PM5) mRNA, blood): −5.7 fold
